According to patent US5886025A, “Anti-mitotic agents which inhibit tubulin polymerization” (Baylor University, priority 1997, dated 1999):
In brackets after ≈: the same amount, converted by molar mass. Entries after “also recorded” stand apart in the source; their conditions may differ. Where a name gives a salt, the structure may show the parent alone. Read-outs that look alike come from different tables or passages of the source.

Tests used:
[1] = treatment of Chagas' disease, cited from earlier work
tubulin [2] = conditions: cis or Z form vs trans or E; cited from earlier work
P388 leukemia cells = assay: cytotoxic assay with P388 leukemia cells; type: cell-based; conditions: for IC50: Mus musculus
Text: The tubulin polymerization compounds can also be tested for their ability to inhibit tumor cell growth.

tubulin [3] = assay: tubulin polymerization assay; type: biochemical, bovine
Description: The ability of the various above described compounds to inhibit tubulin polymerization can be determined by in vitro assay. A suitable assay system is that described by Bai et al A method for purifying tubulin from bovine brain cells is described by Hamel and Lin.
IC50 values for tubulin polymerization were determined according to the procedure described in Bai et al. Purified tubulin is obtained from bovine brain cells as described in Hamel and Lin. Various amounts of inhibitor were preincubated for 15 minutes at 37° C. with purified tubulin. After the incubation period, the reaction was cooled and GTP was added to induce tubulin polymerization. Polymerization was then monitored in a Gilford spectrophotometer at 350 nm. The final reaction mixtures (0.25 ml) contained 1.5 mg/ml tubulin, 0.6 mg/ml microtubule-associated proteins (MAPs), 0.5 mM GTP, 0.5 mM MgCl2, 4% DMSO and 0.1M 4-morpholineethanesulfonate buffer (MES, pH 6.4).

tubulin [4] = conditions: cited from earlier work
estrogen = conditions: cited from earlier work
[5] = relative to tamoxifen; cited from earlier work
[6] = P388, read-out: ED50 (effective dosage required to inhibit 50% of cell growth)

SMILES | activity against P388 leukemia cells (P388 leukemia cells; P388 leukemia cells) | inhibition of tubulin polymerization (tubulin [3]) | IC50 (P388 leukemia cells; [6]) [µg/mL] | further results
O=C(Cn1ccnc1[N+](=O)[O-])NCc1ccccc1 [benznidazole] | – | – | – | genotoxicity in children [1]: may also cause genotoxicity in children; adverse effects [1]: thrombocytopenic purpura and polyneropathy
COc1ccc(/C=C\c2cc(OC)c(OC)c(OC)c2)cc1O [Combretastatin A-4] | – | – | – | binding affinity for tubulin, cis (Z) form compared to trans (E) counterpart (tubulin [2]): much higher binding affinity for tubulin
COc1ccc(-c2sc3cc(OC)ccc3c2C(=O)c2c(OC)cccc2OC)cc1 [2,6-dimethoxybenzoyl, 3-(2', 6'-dimethoxybenzoyl)-2-(4'-methoxyphenyl)-6-methoxybenzo[b]thiophene] | failed to show measurable activity | no observable tubulin polymerization inhibition activity; also recorded: failed to inhibit tubulin polymerization | – | IC50 (P388 leukemia cells; read-out: ED50 (effective dosage required to inhibit 50% of cell growth), P388 leukemia cells): > 100 µg/mL
COc1cc2c(cc1O)CC[C@@H]1[C@@H]2CC[C@]2(C)[C@@H](O)CC[C@@H]12 [2-methoxyestradiol] | – | – | – | inhibition of tubulin polymerization (tubulin [4]): viable inhibitor of tubulin polymerization
CC/C(=C(\c1ccccc1)c1ccc(OCCN(C)C)cc1)c1ccccc1 [tamoxifen] | – | – | – | intrinsic estrogen agonist properties (estrogen): retain some intrinsic estrogen agonist properties
COc1ccc(-c2sc3cc(OC)ccc3c2C(=O)c2cc(OC)c(O)c(OC)c2)cc1 [3,5-dimethoxy-4-hydroxybenzoyl] | failed to show measurable activity | no observable tubulin polymerization inhibition activity; also recorded: failed to inhibit tubulin polymerization | > 100 | –
CC1CS(=O)(=O)CCN1/N=C/c1ccc([N+](=O)[O-])o1 (stereo not drawn) [nifurtimox] | – | – | – | genotoxicity in children [1]: may also cause genotoxicity in children; adverse effects [1]: thrombocytopenic purpura and polyneropathy
COc1ccc(-c2sc3cc(OC)ccc3c2C(=O)c2cc(OC)cc(OC)c2)cc1 [3,5-dimethoxybenzoyl, 3-(3',5'-dimethoxybenzoyl)-2-(4'-methoxyphenyl)-6-methoxybenzo[b]thiophene] | failed to show measurable activity | no observable tubulin polymerization inhibition activity; also recorded: failed to inhibit tubulin polymerization | > 100 | –
COc1ccc(/C=C\c2cc(OC)c(OC)c(OC)c2)cc1N(Cc1ccccc1)Cc1ccccc1 [5-[(Z)-2-(3',4',5'-trimethoxyphenyl)ethenyl]-2-methoxy-N,N-bis-(phenylmethyl)aniline, reference compound] | – | – | 33.9 (≈ 68.4 µM) | –
COc1ccc(C2=C(C(=O)c3ccc(OCCN4CCCC4)cc3)c3ccccc3CC2)cc1 [trioxifene mesylate] | – | – | – | anti-tumor effects compared with tamoxifen [5]: anti-tumor effects at the same or higher level as tamoxifen
